Here are results for five molecules from US11013745B2, “Triazolopyrimidine, triazolopyridine compounds, and the composition thereof for treating PRC2-mediated diseases” (SHANGHAI INSTITUTE OF MATERIA MEDICA, CHINESE ACADEMY OF …, priority 2017, dated 2021).

Like-named read-outs stand apart in the source and are kept apart here.

Series [1] can be described thus: Liver microsomal stability (rat). The format is in vitro ADME. The settings on record: for Clearance rate in vivo Clint In Vivo Extpl / Intrinsic clearance rate in vivo Clint In Vitro / Liver clearance rate Clint Hep In Vivo Extpl / Metabolic bioavailability MF %: rat liver microsomes; for half-life: rat, liver microsomes, pH 7.4, rat liver microsomes, read-out: Half life T-half. Put shortly:
(§1)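 Human, mouse and rat liver microsomes were incubated with NADPH and MgCl2 in 0.1 M Tris pH 7.4, with compound at a 0.2 μM working solution. Remaining compound was quantified by LC/MS over the incubation time. The slope of log remaining versus time gave Clint, which was scaled to predicted Cl, Clhep and % MF.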

Another series concerns Karpas-422 cells. Nature of the series: Growth inhibition of Karpas-422 cells in a long term (11 days), CellTiter-Glo. Type of series: cell-based, Human. As to conditions: read-out: Karpas-422 (11 days) IC50.
A short description of series [2]: Liver microsomal stability (human). The settings on record: for Clearance rate in vivo Clint In Vivo Extpl / Intrinsic clearance rate in vivo Clint In Vitro / Liver clearance rate Clint Hep In Vivo Extpl: human liver microsomes; for half-life / bioavailability: human, liver microsomes, pH 7.4, human liver microsomes; for half-life: read-out: Half life T-half; for bioavailability: read-out: Metabolic bioavailability MF %. Type of series: in vitro ADME. Put shortly: as §1
On the technique in general: Microsomes from liver hold many membrane-bound enzymes, among them those of drug oxidation.

Series [3] is described as follows: Oral pharmacokinetics in rats. Type of series: in vivo. The settings on record: male, SD, plasma, rat, intragastric, 3 mg/kg; for AUC(0-inf): extrapolated to infinity, read-out: AUCINF_obs; for MRT inf: read-out: Average residence time MRTINF_obs; for half-life: read-out: Half life T1/2 (converted); for Cmax: read-out: Peak concentration Cmax. On the procedure:
1. Healthy male SD rats were used as test animals, EED226, […]-07 (3 mg/kg) were administered intragastrically, and the drug concentrations in rat plasma were determined by LC/MS/MS method at different time points after drug administration. The pharmacokinetic behavior of the compounds of the present invention in rats was studied, and the pharmacokinetic properties were evaluated. 2. The test animals were healthy adult male SD rats, with 3 rats in each group, purchased from Shanghai Xipuer-Bikai Laboratory Animal Limited Company. 3. Drug preparation: Compounds EED226, […] were dissolved in DMSO/0.5% HPMC (5/95, v/v) for preparation. The compound SL-ZYE-07 was dissolved in 0.5% HPMC (containing 0.5% Tween 80), vortexed, and sonicated to disperse the solid matter uniformly to obtain a pale white suspension. 4, Operation: EED226, […]-07 were administered to rats by intragastric administration (3 mg/kg), 45 μL of blood was taken through the femoral vein at 0.25, 0.5, 1, 2, 4, 8, 24 hour after administration, and centrifuged in a heparinized centrifuge tube for 5 min, and the plasma samples were separated for analysis. The contents of test compounds in rat plasma after intragastric administration of different compounds were determined by Liquid chromatography-mass spectrometry (LC-MS/MS).

The next series deals with SU-DHL-4 cells. Nature of the series: Growth inhibition of SU-DHL-4 cells in a long term (11 days), CellTiter-Glo. The format is cell-based, Human. The settings on record: read-out: SU-DHL-4 (11 days) IC50. A general note: In ATP-based viability assays light output follows the ATP content of the culture.
Series [4] relates to Pfeiffer cells. Nature of the series: Growth inhibition of Pfeiffer cells in a long term (14 days), CellTiter-Glo. The format is cell-based, Human. As to conditions: read-out: Pfeiffer (14 days) IC50. On the procedure: In a CO2 cell incubator (37° C., 5% CO2), Human diffuse large B-cell lymphoma (DLBCL) cell line, pfeiffer (obtained from ATCC, CRL-2632) were incubated with RPMI 1640 medium (Gibco, purchased from Life Technologies, 22400-089) containing 10% fetal bovine serum (Gibco, purchased from Life Technologies, 10099-141) and 1% antibiotics (penicillin and streptomycin, purchased from Life Technologies, 10378016). […] After seeding the cells, they were placed in a CO2 incubator and allowed to stand for 1 hour. In a 24-well plate containing cells, 2 μL of three-fold gradient of the compounds at 9 different concentrations or DMSO were added to each well, such that the final concentration of the compounds was 0.003-20 μM or 0.3-2000 nM, and the final concentration of DMSO was 0.2%. At day 4, day 7, and day 11 of compound treatment, the fresh medium and compounds were changed, and the cell density of the DMSO control well was diluted to 2*10E5 cells/mL. The cell dilution ratio for other compound wells was the same as that of the DMSO control well. Cell viability was determined by using CellTiter-Glo reagent (purchased from Promega Inc., G7572): cells treated with the compounds for 14 days were transferred to a white 384-well plate (OptiPlate-384, purchased from PerkinElmer, 6007299) at 40 μL/well, an equal volume of CellTiter-Glo reagent was further added. After incubating at room temperature for 10 min, the cold luminescence signal was detected with a multifunctional microplate reader EnVision (PerkinElmer) at a wavelength of 400 to 700 nm. Data were analyzed using GraphPad Prism 5.0 software, and IC50 values were obtained.

Series [5] in a line: Liver microsomal stability (mouse). The format is in vitro ADME. The settings on record: for Clearance rate in vivo Clint In Vivo Extpl / Intrinsic clearance rate in vivo Clint In Vitro / Liver clearance rate Clint Hep In Vivo Extpl / Metabolic bioavailability MF %: mouse liver microsomes; for half-life: mouse, liver microsomes, pH 7.4, mouse liver microsomes, read-out: Half life T-half.

Series [6] concerns Pfeiffer cells. Nature of the series: Pfeiffer cell growth inhibition in a long term (11 days), CellTiter-Glo. The format is cell-based, Human. The settings on record: read-out: Experiment on Pfeiffer cell growth inhibition in a long term (11 days IC50). Put shortly:
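Exponentially growing cells seeded at 1*10E5 cells/mL and treated the same day with a concentration range. Media and compound were refreshed at days 4 and 7. Viability was read by CellTiter-Glo after 11 days and GI50 values were derived.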

A further series deals with PRC2 enzyme (Homo sapiens (Human), UniProt O75530). Nature of the series: PRC2 enzyme activity, TR-FRET method. Type of series: biochemical. Put shortly: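 Enzyme preincubated with compound 30 min at room temperature; reaction started with biotin-labeled histone H3 peptide and SAM, run 4 h at room temperature.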
[7] abbreviates: Homo sapiens, 264 h, Karpas-422, 11 days.
Setting [8] is: Homo sapiens, 264 h, SU-DHL-4, 11 days.

By IC50 is commonly meant the concentration that inhibits the measured activity by half. In general, bioavailability refers to dose-corrected exposure relative to a reference, in per cent. By AUC(0-t) is commonly meant exposure summed from dosing to a finite time, without extrapolation to infinity.

Sequence of PRC2 enzyme (O75530 whole entry): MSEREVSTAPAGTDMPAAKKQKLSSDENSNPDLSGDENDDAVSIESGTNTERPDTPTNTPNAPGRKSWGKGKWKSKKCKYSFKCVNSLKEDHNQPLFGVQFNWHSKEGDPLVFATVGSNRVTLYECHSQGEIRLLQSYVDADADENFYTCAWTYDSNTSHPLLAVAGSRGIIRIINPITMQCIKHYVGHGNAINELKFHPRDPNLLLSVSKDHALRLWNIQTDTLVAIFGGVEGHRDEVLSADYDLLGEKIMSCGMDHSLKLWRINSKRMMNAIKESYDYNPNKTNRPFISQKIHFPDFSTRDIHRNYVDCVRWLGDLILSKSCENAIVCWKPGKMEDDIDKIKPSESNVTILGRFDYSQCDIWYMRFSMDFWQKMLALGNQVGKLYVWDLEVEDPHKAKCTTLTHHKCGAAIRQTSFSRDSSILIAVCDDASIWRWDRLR
Sequence of PRC2 enzyme (Q15910 whole entry partner): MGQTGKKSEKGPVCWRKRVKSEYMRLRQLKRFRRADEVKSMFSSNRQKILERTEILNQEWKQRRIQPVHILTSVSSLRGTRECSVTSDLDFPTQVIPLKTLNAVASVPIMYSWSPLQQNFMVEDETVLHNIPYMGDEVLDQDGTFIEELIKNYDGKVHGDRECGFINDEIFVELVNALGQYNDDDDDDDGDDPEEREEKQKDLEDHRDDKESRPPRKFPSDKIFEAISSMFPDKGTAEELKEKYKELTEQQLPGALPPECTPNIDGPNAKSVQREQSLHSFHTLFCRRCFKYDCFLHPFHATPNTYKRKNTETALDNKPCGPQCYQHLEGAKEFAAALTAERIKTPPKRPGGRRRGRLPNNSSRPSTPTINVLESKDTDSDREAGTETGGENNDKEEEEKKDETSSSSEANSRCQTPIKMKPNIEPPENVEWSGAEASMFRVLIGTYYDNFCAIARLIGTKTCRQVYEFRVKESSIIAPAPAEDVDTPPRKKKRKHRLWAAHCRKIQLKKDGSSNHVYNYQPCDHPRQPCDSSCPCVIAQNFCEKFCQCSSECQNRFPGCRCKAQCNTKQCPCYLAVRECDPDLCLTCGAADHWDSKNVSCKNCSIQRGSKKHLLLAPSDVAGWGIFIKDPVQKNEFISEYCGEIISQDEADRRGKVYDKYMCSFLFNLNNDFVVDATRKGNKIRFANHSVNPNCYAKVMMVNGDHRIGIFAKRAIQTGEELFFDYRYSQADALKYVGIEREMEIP
Sequence of PRC2 enzyme (Q15022 whole entry partner): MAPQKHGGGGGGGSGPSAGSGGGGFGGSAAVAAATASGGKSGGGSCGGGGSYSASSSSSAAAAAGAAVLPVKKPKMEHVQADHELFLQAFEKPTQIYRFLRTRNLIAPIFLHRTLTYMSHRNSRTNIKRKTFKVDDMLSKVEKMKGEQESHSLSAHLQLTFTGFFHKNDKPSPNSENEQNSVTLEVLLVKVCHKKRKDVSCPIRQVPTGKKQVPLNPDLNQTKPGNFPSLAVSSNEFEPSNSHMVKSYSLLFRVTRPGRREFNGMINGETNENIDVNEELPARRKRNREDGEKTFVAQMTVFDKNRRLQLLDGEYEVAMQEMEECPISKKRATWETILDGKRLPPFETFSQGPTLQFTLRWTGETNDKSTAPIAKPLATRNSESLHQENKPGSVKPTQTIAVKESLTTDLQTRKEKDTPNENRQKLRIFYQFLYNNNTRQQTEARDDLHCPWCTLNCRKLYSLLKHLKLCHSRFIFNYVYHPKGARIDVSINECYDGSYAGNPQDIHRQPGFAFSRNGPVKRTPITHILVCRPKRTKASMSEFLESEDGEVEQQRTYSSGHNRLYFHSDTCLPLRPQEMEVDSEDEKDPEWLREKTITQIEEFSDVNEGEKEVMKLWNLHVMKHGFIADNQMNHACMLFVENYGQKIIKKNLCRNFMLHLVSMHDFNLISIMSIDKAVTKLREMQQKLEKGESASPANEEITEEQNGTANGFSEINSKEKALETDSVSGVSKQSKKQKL

For `Fc1ccc2c(c1CNc1ncc(C3=CCOCC3)c3nncn13)CCO2` [E-Y1], in [1], the “Clearance rate in vivo Clint In Vivo Extpl” value came to 15.9 mL/min, the “Intrinsic clearance rate in vivo Clint In Vitro” value (“Intrinsic clearance rate” below) is given as 35.2 mL/min/gprot, the “Liver clearance rate Clint Hep In Vivo Extpl” value was found to be 8.85 mL/min and the “Metabolic bioavailability MF %” value was determined as 55.8%. Further, the half-life in series [1] turned out to be 0.993 h. Also, the 50% inhibitory concentration (IC50) with Karpas-422 cells (setting [7]) amounted to 19 nM. In series [2], the “Clearance rate in vivo Clint In Vivo Extpl” value turned out to be 1613 mL/min, the “Intrinsic clearance rate” value is on record as 21.1 mL/min/gprot, the “Liver clearance rate Clint Hep In Vivo Extpl” value worked out at 777 mL/min and the half-life was 1.66 h. Further, the bioavailability in series [2] was determined as 48.2%. Further, in [3], the exposure AUC(0-t) came out at 2200 ± 237 ng·h/mL, the AUC(0-inf) is 2200 ± 239 ng·h/mL, the MRT inf stood at 5.46 ± 0.342 h and the half-life is 2.32 ± 0.268 h. Moreover, in series [3], the Cmax turned out to be 302 ± 6.4 ng/mL. Also, in the series on SU-DHL-4 cells (setting [8]), the IC50 is 4 nM. Also, the IC50 in the series on Pfeiffer cells [4] (Homo sapiens, 336 h, 14 days) was determined as 4 nM. In series [5], the “Clearance rate in vivo Clint In Vivo Extpl” value stood at 1.98 mL/min, the “Intrinsic clearance rate” value was found to be 29.4 mL/min/gprot, the “Liver clearance rate Clint Hep In Vivo Extpl” value came to 1.19 mL/min and the “Metabolic bioavailability MF %” value was 60.2%. The half-life in series [5] worked out at 1.19 h. Further, in the series with Pfeiffer cells [6] (Homo sapiens, 264 h, 11 days), the IC50 stood at 8 nM.

On to `CC(=O)N1CC=C(c2cnc(NCc3c(F)ccc4c3CCO4)n3cnnc23)CC1` [E-Y15], for which the “Clearance rate in vivo Clint In Vivo Extpl” value was found to be 64.7 mL/min in series [1], 1280 mL/min in series [2] and 5.51 mL/min in series [5]. The “Intrinsic clearance rate” value in series [1] was 144 mL/min/gprot; in series [2], 16.7 mL/min/gprot; in series [5], 81.6 mL/min/gprot. Also, the “Liver clearance rate Clint Hep In Vivo Extpl” value in series [1] stood at 15.3 mL/min; in series [2], 691 mL/min; in series [5] it was 1.94 mL/min. In addition, the “Metabolic bioavailability MF %” value in [1] is 23.6%; in [5], 35.3%. Besides, the half-life in series [1] worked out at 0.243 h; in series [2] it was 2.1 h; in series [5], 0.428 h. The IC50 in the series on Karpas-422 cells (setting [7]) came out at 7 nM; in the series on SU-DHL-4 cells (setting [8]), 3 nM; in the series on Pfeiffer cells [4] (Homo sapiens, 336 h, 14 days), 0.7 nM; on PRC2 enzyme it was 5.6 nM; in the series on Pfeiffer cells [6] (Homo sapiens, 264 h, 11 days), 1.9 nM. Also, the bioavailability in series [2] is 54%.

As to `CS(=O)(=O)c1ccc(-c2cnc(NCc3ccco3)n3cnnc23)cc1` [EED226, reference compound], in the series with Karpas-422 cells (Homo sapiens, KARPAS-422, 264 h), the IC50 came out at 167 nM. In series [3], the AUC(0-t) is 886 ± 336 ng·h/mL, the AUC(0-inf) was 915 ± 316 ng·h/mL, the MRT inf was found to be 2.55 ± 1.08 h and the half-life was 1.63 ± 0.411 h. In addition, in series [3], the Cmax is 464 ± 429 ng/mL. In addition, the IC50 in the series on SU-DHL-4 cells (Homo sapiens, SU-DHL-4, 264 h) was 95 nM. The half-inhibitory concentration (IC50) in the series with Pfeiffer cells [4] (Homo sapiens, 336 h) came to 44 nM. For the same molecule, at PRC2 enzyme, the IC50 was 104 nM. For the same molecule, the IC50 in the series on Pfeiffer cells [6] (Homo sapiens, 264 h) amounted to 52 nM.

As for `Fc1ccc2c(c1CNc1ncc(C3=CCCOCC3)c3nncn13)CCO2` [SL-ZYE-07], in the series with Karpas-422 cells (setting [7]), the IC50 turned out to be 25 nM. In series [3], the AUC(0-t) stood at 891 ± 164 ng·h/mL, the AUC(0-inf) was 910 ± 174 ng·h/mL, the MRT inf was found to be 4.71 ± 0.896 h and the half-life was 3.77 ± 1.69 h. Also, the Cmax in [3] turned out to be 155 ± 34.8 ng/mL. Besides, the IC50 with SU-DHL-4 cells (setting [8]) came out at 5 nM. For the same molecule, the IC50 in the series on Pfeiffer cells [4] (Homo sapiens, 336 h, 14 days) is 1 nM. For the same molecule, half-maximal inhibition against PRC2 enzyme (IC50) was put at 7.3 nM.

In the case of `CC1C=C(c2cnc(NCc3c(F)ccc4c3CCO4)n3cnnc23)CCO1` (centres unmarked) [SL-ZYE-197], the IC50 in the series on Karpas-422 cells (Karpas-422, 11 days) came out at 16 nM; in the series on SU-DHL-4 cells (SU-DHL-4, 11 days), 56 nM; with Pfeiffer cells [4] (14 days) it was 5 nM; against PRC2 enzyme it was 7.8 nM; with Pfeiffer cells [6] (11 days) it was 10 nM.
